Test results as given in patent US20260262643A1, “HERBICIDAL BENZOXAZINES” (FMC CORPORATION, priority 2022, published 2026).

Assays:
kochia [1] = assay: Test C postemergence; type: in vivo, Bassia scoparia; details: 10 days, 0 to 100 scale (0 no effect, 100 complete control)
Summary of the method: (§1)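 Test material, in non-phytotoxic solvent with surfactant, was sprayed on the soil directly after seeding (preemergence) or on young plants of 2–10 cm with one to two leaves (postemergence). Greenhouse, 10 days; 0–100 visual control scale.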

soybean [2] = assay: Test C postemergence; type: in vivo, Glycine max; details: 10 days, 0 to 100 scale (0 no effect, 100 complete control)
Summary of the method: as §1

oat, wild [3] = assay: Test C postemergence; type: in vivo, Avena fatua; details: 10 days, 0 to 100 scale (0 no effect, 100 complete control)
Summary of the method: as §1

ducksalad = assay: Test D flooded paddy test; type: in vivo, Heteranthera limosa; details: 250 g ai/ha, applied to paddy water, visual rating after 13 to 14 days, scale 0 to 100 (0 no effect, 100 complete control)
Summary of the method: (§2)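 Seedlings reached the 2-leaf stage, then pots were flooded to 3 cm over the soil surface. Compound was applied into the water, depth was maintained, and plants stayed in the greenhouse 13 to 14 days before visual scoring (0–100) relative to controls.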

wheat [4] = assay: Test C preemergence; type: in vivo, Triticum aestivum
Summary of the method: as §1

blackgrass [5] = assay: Test C postemergence; type: in vivo, Alopecurus myosuroides; details: 10 days, 0 to 100 scale (0 no effect, 100 complete control)
Summary of the method: as §1

foxtail, giant [6] = assay: Test C preemergence; type: in vivo, Setaria faberi
Summary of the method: as §1

ryegrass, Italian [7] = assay: Test C postemergence; type: in vivo, Lolium multiflorum; details: 10 days, 0 to 100 scale (0 no effect, 100 complete control)
Summary of the method: as §1

corn [8] = assay: Test C preemergence; type: in vivo, Zea mays
Summary of the method: as §1

ryegrass, Italian [9] = assay: Test C preemergence; type: in vivo, Lolium multiflorum
Summary of the method: as §1

ragweed [10] = assay: Test C preemergence; type: in vivo, Ambrosia artemisiifolia
Summary of the method: as §1

horseweed = assay: Test C postemergence; type: in vivo, Erigeron canadensis; details: 10 days, 0 to 100 scale (0 no effect, 100 complete control)
Summary of the method: as §1

galium = assay: Test C postemergence; type: in vivo, Galium aparine; details: 10 days, 0 to 100 scale (0 no effect, 100 complete control)
Summary of the method: as §1

ragweed [11] = assay: Test C postemergence; type: in vivo, Ambrosia artemisiifolia; details: 10 days, 0 to 100 scale (0 no effect, 100 complete control)
Summary of the method: as §1

wheat [12] = assay: Test C postemergence; type: in vivo, Triticum aestivum; details: 10 days, 0 to 100 scale (0 no effect, 100 complete control)
Summary of the method: as §1

rice = assay: Test D flooded paddy test; type: in vivo, Oryza sativa; details: 250 g ai/ha, applied to paddy water, visual rating after 13 to 14 days, scale 0 to 100 (0 no effect, 100 complete control)
Summary of the method: as §2

corn [13] = assay: Test C postemergence; type: in vivo, Zea mays; details: 10 days, 0 to 100 scale (0 no effect, 100 complete control)
Summary of the method: as §1

blackgrass [14] = assay: Test C preemergence; type: in vivo, Alopecurus myosuroides
Summary of the method: as §1

barnyardgrass [15] = assay: Test C postemergence; type: in vivo, Echinochloa crusgalli; details: 10 days, 0 to 100 scale (0 no effect, 100 complete control)
Summary of the method: as §1

pigweed, palmer [16] = assay: Test C preemergence; type: in vivo, Amaranthus palmeri
Summary of the method: as §1

kochia [17] = assay: Test C preemergence; type: in vivo, Bassia scoparia
Summary of the method: as §1

soybean [18] = assay: Test C preemergence; type: in vivo, Glycine max
Summary of the method: as §1

sedge, umbrella = assay: Test D flooded paddy test; type: in vivo, Cyperus difformis; details: 250 g ai/ha, applied to paddy water, visual rating after 13 to 14 days, scale 0 to 100 (0 no effect, 100 complete control)
Summary of the method: as §2

oat, wild [19] = assay: Test C preemergence; type: in vivo, Avena fatua
Summary of the method: as §1

foxtail, giant [20] = assay: Test C postemergence; type: in vivo, Setaria faberi; details: 10 days, 0 to 100 scale (0 no effect, 100 complete control)
Summary of the method: as §1

barnyardgrass [21] = assay: Test D flooded paddy test; type: in vivo, Echinochloa crus-galli; details: 250 g ai/ha, applied to paddy water, visual rating after 13 to 14 days, scale 0 to 100 (0 no effect, 100 complete control)
Summary of the method: as §2

barnyardgrass [22] = assay: Test C preemergence; type: in vivo, Echinochloa crusgalli
Summary of the method: as §1

pigweed, palmer [23] = assay: Test C postemergence; type: in vivo, Amaranthus palmeri; details: 10 days, 0 to 100 scale (0 no effect, 100 complete control)
Summary of the method: as §1

[24] = 500 g ai/ha, preemergence, 0 to 100 scale (0 no effect, 100 complete control)
[25] = Preemergence, 125 g ai/ha, 0 to 100 scale, 0 no effect, 100 complete control

With `Cc1cccc2c1OC(C(F)(F)F)CN2C(=O)c1ccnc(-n2cnc(C(C)(C)C)n2)c1` (stereo not shown) [Compound 319] the “Plant response rating, Kochia” value (kochia [1]; 500 g ai/ha, postemergence) was 90, the “Plant response rating, Kochia” value (kochia [1]; Postemergence, 125 g ai/ha) was 40 and the “Plant response rating, Soybean” value (soybean [2]; 500 g ai/ha, postemergence) was 100. For the same compound, the “Plant response rating, Soybean” value (soybean [2]; Postemergence, 125 g ai/ha) was 100, the “Plant response rating, Oat, Wild” value (oat, wild [3]; 500 g ai/ha, postemergence) was 30 and the “Plant response rating, Oat, Wild” value (oat, wild [3]; Postemergence, 125 g ai/ha) was 0. For the same compound, the “Plant response rating, Ducksalad (Flood)” value (ducksalad) was 0, the “Wheat plant response rating” value (wheat [4]; [24]) was 30 and the “Plant response rating, Wheat” value (wheat [4]; [25]) was 0. The “Plant response rating, Blackgrass” value (blackgrass [5]; 500 g ai/ha, postemergence) was 80, the “Plant response rating, Blackgrass” value (blackgrass [5]; Postemergence, 125 g ai/ha) was 10 and the “Foxtail, Giant plant response rating” value (foxtail, giant [6]; [24]) was 100. The “Plant response rating, Foxtail, Giant” value (foxtail, giant [6]; [25]) was 100, the “Plant response rating, Ryegrass, Italian” value (ryegrass, Italian [7]; 500 g ai/ha, postemergence) was 50 and the “Plant response rating, Ryegrass, Italian” value (ryegrass, Italian [7]; Postemergence, 125 g ai/ha) was 30. The “Corn plant response rating” value (corn [8]; [24]) was 20, the “Plant response rating, Corn” value (corn [8]; [25]) was 0 and the “Ryegrass, Italian plant response rating” value (ryegrass, Italian [9]; [24]) was 100. The “Plant response rating, Ryegrass, Italian” value (ryegrass, Italian [9]; [25]) was 100, the “Ragweed plant response rating” value (ragweed [10]; [24]) was 0 and the “Plant response rating, Ragweed” value (ragweed [10]; [25]) was 0. The “Plant response rating, Horseweed” value (horseweed; 500 g ai/ha, postemergence) was 30, the “Plant response rating, Horseweed” value (horseweed; Postemergence, 125 g ai/ha) was 0 and the “Plant response rating, Galium” value (galium; 500 g ai/ha, postemergence) was 70. The “Plant response rating, Galium” value (galium; Postemergence, 125 g ai/ha) was 60, the “Plant response rating, Ragweed” value (ragweed [11]; 500 g ai/ha, postemergence) was 70 and the “Plant response rating, Ragweed” value (ragweed [11]; Postemergence, 125 g ai/ha) was 0. For the same compound, the “Plant response rating, Wheat” value (wheat [12]; 500 g ai/ha, postemergence) was 10, the “Plant response rating, Wheat” value (wheat [12]; Postemergence, 125 g ai/ha) was 10 and the “Plant response rating, Rice (Flood)” value (rice) was 0. For the same compound, the “Plant response rating, Corn” value (corn [13]; 500 g ai/ha, postemergence) was 50, the “Plant response rating, Corn” value (corn [13]; Postemergence, 125 g ai/ha) was 20 and the “Blackgrass plant response rating” value (blackgrass [14]; [24]) was 70. For the same compound, the “Plant response rating, Blackgrass” value (blackgrass [14]; [25]) was 50, the “Plant response rating, Barnyardgrass” value (barnyardgrass [15]; 500 g ai/ha, postemergence) was 60 and the “Plant response rating, Barnyardgrass” value (barnyardgrass [15]; Postemergence, 125 g ai/ha) was 10. For the same compound, the “Pigweed, Palmer plant response rating” value (pigweed, palmer [16]; [24]) was 90, the “Plant response rating, Pigweed, Palmer” value (pigweed, palmer [16]; [25]) was 80 and the “Kochia plant response rating” value (kochia [17]; [24]) was 0. The “Plant response rating, Kochia” value (kochia [17]; [25]) was 0, the “Soybean plant response rating” value (soybean [18]; [24]) was 100 and the “Plant response rating, Soybean” value (soybean [18]; [25]) was 20. The “Plant response rating, Sedge, Umbrella (Flood)” value (sedge, umbrella) was 0, the “Oat, Wild plant response rating” value (oat, wild [19]; [24]) was 40 and the “Plant response rating, Oat, Wild” value (oat, wild [19]; [25]) was 20. The “Plant response rating, Foxtail, Giant” value (foxtail, giant [20]; 500 g ai/ha, postemergence) was 80, the “Plant response rating, Foxtail, Giant” value (foxtail, giant [20]; Postemergence, 125 g ai/ha) was 30 and the “Plant response rating, Barnyardgrass (Flood)” value (barnyardgrass [21]) was 0. For the same compound, the “Barnyardgrass plant response rating” value (barnyardgrass [22]; [24]) was 90, the “Plant response rating, Barnyardgrass” value (barnyardgrass [22]; [25]) was 40 and the “Plant response rating, Pigweed, Palmer” value (pigweed, palmer [23]; 500 g ai/ha, postemergence) was 80. For the same compound, the “Plant response rating, Pigweed, Palmer” value (pigweed, palmer [23]; Postemergence, 125 g ai/ha) was 30.
